The values below come from paper PMC10764862, “Structural basis and selectivity of sulfatinib binding to FGFR and CSF-1R” (Communications Chemistry, 2024).

Substitutions are numbered along the chain they refer to. Where two headings read alike, the source gives them in different places.

For experiment [1], the system named is FGFR4. On the set-up: method as in PMID 28665128. The following applies: cited from earlier work.
The subject of experiment [2] is FGFR3. On the set-up: method as in PMID 28665128. The following applies: cited from earlier work.
The subject of experiment [3] is CSF-1R. On the set-up: method as in PMID 28665128. The conditions noted are these: cited from earlier work.
The target of a further experiment is T1, FGFR3^V555M (Homo sapiens, UniProt P22607, V555M).
T1 construct: FGFR3 (residues 450–758); 6×His (PreScission-cleavable) (N, cleaved yes); made in house; host or cells: E. coli BL21 Rosetta
In words: Kinase inhibition assay (ADP-Glo), FGFR3 V555M gatekeeper mutant. Type of experiment: biochemical. As to the method:
(§1) FGFRs were prepared as previously described[6],[34],[44],[45]. Briefly, FGFR1 (residues 458–765), FGFR2 (residues 458–768), FGFR3 (residues 450–758) as well as FGFR4 (residues 445–753), and their mutants, FGFR1^C584S, FGFR1^V561M, FGFR2^V564I, FGFR2^V564F and FGFR3^V555M, were cloned into a modified pET28a vector in frame with an N-terminal PreScission-cleavable 6×His tag and expressed in E. coli BL21 Rosetta cells. For crystallization, FGFR1^C584S was co-expressed with untagged YOPH to induce non-phosphorylated proteins. The harvested cell pellets were lysed in a buffer containing 20 mM Tris-HCl, pH 8.0, 500 mM NaCl, 20 mM imidazole and 0.5 mM TCEP, and FGFRs were purified over Ni-NTA resin followed by enzymatic digestion with PreScission for 6×His-tag cleavage and further purified by anion exchange chromatography (GE Healthcare). For crystallization, FGFR1^C584S was further purified by gel filtration chromatography (GE Healthcare). […]
(§2) The inhibition by sulfatinib was determined by the measurement of kinase activities following the ADP-Glo assay kit (Promega)[6],[44],[45]. […] Following the addition of detection reagent to convert the generated ADP to ATP, the luminescence was detected by a plate reader (Perkin Elmer). Samples were run in triplicate and the IC50 values were calculated by log[Inhibitor] versus kinase activity ratio in GraphPad Prism 8.0.

In a further experiment the target is T2, FGFR2^V564I (Homo sapiens, UniProt P21802, V564I).
T2 construct: FGFR2 (residues 458–768); 6×His (PreScission-cleavable) (N, cleaved yes); made in house; host or cells: E. coli BL21 Rosetta
In words: Kinase inhibition assay (ADP-Glo), FGFR2 V564I gatekeeper mutant. Format: biochemical. As to the method:
as §1, §2
A general note: ADP-Glo first removes unused ATP, then detects ADP through luciferase.

In experiment [4] the target is T3, FGFR3 (Homo sapiens, UniProt P22607).
T3 construct: FGFR3 (residues 450–758); 6×His (PreScission-cleavable) (N, cleaved yes); made in house; host or cells: E. coli BL21 Rosetta
In words: Kinase inhibition assay (ADP-Glo), FGFR3. Format: biochemical. The conditions noted are these: wild-type kinase domain. As to the method:
as §1, §2

The target in another experiment is T4, FGFR1^V561M (Homo sapiens, UniProt P11362, V561M).
T4 construct: FGFR1 (residues 458–765); 6×His (PreScission-cleavable) (N, cleaved yes); made in house; host or cells: E. coli BL21 Rosetta
Briefly: Kinase inhibition assay (ADP-Glo), FGFR1 V561M gatekeeper mutant. Format: biochemical. Here is the method: as §1, §2

A further experiment has as its target T5, FGFR2 (Homo sapiens, UniProt P21802).
T5 construct: FGFR2 (residues 458–768); 6×His (PreScission-cleavable) (N, cleaved yes); made in house; host or cells: E. coli BL21 Rosetta
In words: Kinase inhibition assay (ADP-Glo), FGFR2. The conditions noted are these: wild-type kinase domain. Format: biochemical. Here is the method:
as §1, §2

The target in experiment [5] is T6, CSF-1R (Homo sapiens, UniProt P07333, C667T/C830S/C907T/DEL696-741).
T6 construct: Wild-type CSF-1R (residues 542–919, △696–741, C677T, C830S, C907T); 6×His (N); made in house; host or cells: SF9 insect cells (baculovirus)
T6 sequence (P07333 with tags, fused parts or gaps C667T/DEL696-741/C830S/C907T): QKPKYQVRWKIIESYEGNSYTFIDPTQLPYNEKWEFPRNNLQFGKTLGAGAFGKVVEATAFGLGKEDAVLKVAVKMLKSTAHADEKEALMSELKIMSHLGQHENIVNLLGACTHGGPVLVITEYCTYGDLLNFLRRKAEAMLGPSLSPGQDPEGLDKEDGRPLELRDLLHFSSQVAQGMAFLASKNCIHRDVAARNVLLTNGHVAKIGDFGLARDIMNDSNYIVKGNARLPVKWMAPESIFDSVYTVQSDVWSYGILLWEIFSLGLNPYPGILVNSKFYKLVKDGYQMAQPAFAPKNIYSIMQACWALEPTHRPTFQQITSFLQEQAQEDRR
Briefly: Kinase inhibition assay (ADP-Glo), CSF-1R. Type of experiment: biochemical. The following applies: wild-type kinase domain. Here is the method: (§3) Wild-type CSF-1R (residues 542–919, △696–741, C677T, C830S, C907T) and CSF-1R^T663I carrying an N-terminal 6×His tag was cloned into a pFastBac expression vector, and was expressed in SF9 cells using the Invitrogen Bac-to-Bac Baculovirus Expression System[41]. For crystallization, CSF-1R was co-expressed with N-terminal GST-tagged YOPH to induce non-phosphorylated proteins. The harvested cell pellets were lysed by sonication in lysis buffer consisting of 40 mM K-phosphate, pH 8.0, 200 mM NaCl, 0.5 mM PMSF, and protease inhibitor mixture (EDTA-free, Roche). After centrifugation, the clarified cell lysate was supplemented with 20 mM imidazole, and incubated with Ni-NTA beads (GE Healthcare). The Ni-NTA bead-bound CSF-1R protein was eluted using 25 mM HEPES, pH 7.0, 150 mM NaCl and 200 mM imidazole, and was subsequently supplemented with 10 mM DTT after elution. […]
as §2

Another experiment addresses T7, CSF-1R^T663I (Homo sapiens, UniProt P07333, C667T/C830S/C907T/DEL696-741/T663I).
T7 sequence (P07333 with tags, fused parts or gaps T663I/C667T/DEL696-741/C830S/C907T): T6 sequence (P07333 with tags, fused parts or gaps C667T/DEL696-741/C830S/C907T) with T122I
In words: Kinase inhibition assay (ADP-Glo), CSF-1R T663I gatekeeper mutant. Type of experiment: biochemical. The conditions noted are these: read-out: Kinase inhibitory activity CSF-1R^T663I IC50. Here is the method:
as §3, §2

For experiment [6], the target named is T8, FGFR4 (Homo sapiens, UniProt P22455).
T8 construct: FGFR4 (residues 445–753); 6×His (PreScission-cleavable) (N, cleaved yes); made in house; host or cells: E. coli BL21 Rosetta
In words: Kinase inhibition assay (ADP-Glo), FGFR4. Format: biochemical. As to the method: as §1, §2

For another experiment, the target named is T9, FGFR2^V564F (Homo sapiens, UniProt P21802, V564F).
T9 construct: FGFR2 (residues 458–768); 6×His (PreScission-cleavable) (N, cleaved yes); made in house; host or cells: E. coli BL21 Rosetta
In words: Kinase inhibition assay (ADP-Glo), FGFR2 V564F gatekeeper mutant. Format: biochemical. Here is the method:
as §1, §2

The target in the next experiment is T10, FGFR1 (Homo sapiens, UniProt P11362).
T10 construct: FGFR1 (residues 458–765); 6×His (PreScission-cleavable) (N, cleaved yes); made in house; host or cells: E. coli BL21 Rosetta
In words: Kinase inhibition assay (ADP-Glo), FGFR1. The conditions noted are these: wild-type kinase domain. Format: biochemical. As to the method:
as §1, §2

T1 sequence (P22607 450-758 V555M): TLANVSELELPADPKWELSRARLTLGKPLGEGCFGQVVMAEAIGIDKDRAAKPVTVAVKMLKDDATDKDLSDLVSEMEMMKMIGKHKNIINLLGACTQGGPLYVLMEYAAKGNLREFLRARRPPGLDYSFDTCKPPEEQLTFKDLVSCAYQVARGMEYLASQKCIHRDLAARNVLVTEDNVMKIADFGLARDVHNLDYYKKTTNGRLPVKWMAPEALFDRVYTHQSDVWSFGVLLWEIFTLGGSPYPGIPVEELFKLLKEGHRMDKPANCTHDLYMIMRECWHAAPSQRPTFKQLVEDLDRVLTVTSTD
T4 sequence (P11362 458-765 V561M): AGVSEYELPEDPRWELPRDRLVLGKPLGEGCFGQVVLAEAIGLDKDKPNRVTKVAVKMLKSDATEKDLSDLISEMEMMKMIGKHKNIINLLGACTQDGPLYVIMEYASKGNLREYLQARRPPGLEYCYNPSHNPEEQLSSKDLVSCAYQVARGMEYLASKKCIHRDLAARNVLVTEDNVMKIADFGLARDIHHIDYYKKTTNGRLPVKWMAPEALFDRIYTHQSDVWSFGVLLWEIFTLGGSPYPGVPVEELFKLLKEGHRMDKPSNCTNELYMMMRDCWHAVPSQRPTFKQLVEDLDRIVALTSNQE
T9 sequence (P21802 458-768 V564F): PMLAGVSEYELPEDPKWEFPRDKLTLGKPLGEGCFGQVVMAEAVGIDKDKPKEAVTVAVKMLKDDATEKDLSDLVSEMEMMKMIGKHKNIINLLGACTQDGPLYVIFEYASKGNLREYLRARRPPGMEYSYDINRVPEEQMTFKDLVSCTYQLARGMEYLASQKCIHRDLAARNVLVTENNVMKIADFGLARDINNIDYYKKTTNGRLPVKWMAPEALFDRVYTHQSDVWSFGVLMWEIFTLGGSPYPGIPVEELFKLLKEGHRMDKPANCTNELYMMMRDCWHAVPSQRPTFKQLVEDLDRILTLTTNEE
T8 sequence (P22455 445-753): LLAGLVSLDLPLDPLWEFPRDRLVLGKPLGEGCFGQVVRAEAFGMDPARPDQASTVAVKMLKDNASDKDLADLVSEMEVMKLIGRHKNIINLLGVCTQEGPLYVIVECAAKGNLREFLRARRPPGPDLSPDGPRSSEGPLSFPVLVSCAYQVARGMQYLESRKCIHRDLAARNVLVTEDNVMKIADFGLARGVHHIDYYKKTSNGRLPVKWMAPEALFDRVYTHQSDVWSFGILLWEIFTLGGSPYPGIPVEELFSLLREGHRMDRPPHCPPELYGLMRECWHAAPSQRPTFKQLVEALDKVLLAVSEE
T2 sequence (P21802 458-768 V564I): as the sequence (P21802 458-768 V564F) above, with F107I counted along it
T5 sequence (P21802 458-768): as the sequence (P21802 458-768 V564F) above, with F107V counted along it
T3 sequence (P22607 450-758): as the sequence (P22607 450-758 V555M) above, with M106V counted along it
T10 sequence (P11362 458-765): as the sequence (P11362 458-765 V561M) above, with M104V counted along it

In the case of `C=CC(=O)N1CCN(CCCn2c(=O)c(-c3c(Cl)c(OC)cc(OC)c3Cl)cc3cnc(NC)nc32)CC1` [PRN1371, 8-(3-(4-Acryloylpiperazin-1-yl)propyl)-6-(2,6-dichloro-3,5-dimethoxyphenyl)-2-(methylamino)pyrido[2,3-d]pyrimidin-7(8H)-one], the values for the IC50 in the experiment with FGFR4 [1], in the experiment with FGFR3 [2] and with CSF-1R [3] were 19.3 nM, […] and 8.1 nM, respectively.

As for `Cc1cc2cc(Oc3ccnc(Nc4cccc(CS(=O)(=O)NCCN(C)C)c4)n3)ccc2[nH]1` [sulfatinib], the IC50 on FGFR3^V555M (ADP-Glo, read-out: Kinase inhibitory activity FGFR3^V555M IC50) was greater than 5000 nM; at FGFR3^V555M (bound stated, read-out: IC50 for FGFR3^V555M), greater than 2000 nM; on FGFR2^V564I (ADP-Glo, read-out: Kinase inhibitory activity FGFR2^V564I IC50) it was 3490 nM; on FGFR2^V564I (bound stated, read-out: IC50 for FGFR2^V564I), greater than 2000 nM; against FGFR3 [4], 28 nM; at FGFR1^V561M (ADP-Glo, read-out: Kinase inhibitory activity FGFR1^V561M IC50) it was greater than 5000 nM. Besides, the IC50 was greater than 2000 nM at FGFR1^V561M (bound stated, read-out: IC50 for FGFR1^V561M); 21 nM on FGFR2; 5 nM against CSF-1R [5]; 4 nM at CSF-1R^T663I; 889 nM at FGFR4 [6] (wild-type kinase domain, ADP-Glo); 2970 nM on FGFR2^V564F (ADP-Glo, read-out: Kinase inhibitory activity FGFR2^V564F IC50). The IC50 at FGFR2^V564F (bound stated, read-out: IC50 for FGFR2^V564F) was greater than 2000 nM; at FGFR1, 34 nM. Moreover, the “reduction in efficacy for FGFR4” value at FGFR4 [6] (FGFR4 IC50 compared with FGFR1) is “approximately 26 fold”.

The IC50 is the concentration at which inhibition is half-maximal.
